Experimental data taken from patent publication US11667602B2, “Compounds and their use” (AstraZeneca AB, priority 2020, dated 2023).
Where two headings read alike, the source gives them in different places.

Target: T1, human RXFP1 (Homo sapiens, UniProt Q9HBX9)
T1 sequence (Q9HBX9 1-757): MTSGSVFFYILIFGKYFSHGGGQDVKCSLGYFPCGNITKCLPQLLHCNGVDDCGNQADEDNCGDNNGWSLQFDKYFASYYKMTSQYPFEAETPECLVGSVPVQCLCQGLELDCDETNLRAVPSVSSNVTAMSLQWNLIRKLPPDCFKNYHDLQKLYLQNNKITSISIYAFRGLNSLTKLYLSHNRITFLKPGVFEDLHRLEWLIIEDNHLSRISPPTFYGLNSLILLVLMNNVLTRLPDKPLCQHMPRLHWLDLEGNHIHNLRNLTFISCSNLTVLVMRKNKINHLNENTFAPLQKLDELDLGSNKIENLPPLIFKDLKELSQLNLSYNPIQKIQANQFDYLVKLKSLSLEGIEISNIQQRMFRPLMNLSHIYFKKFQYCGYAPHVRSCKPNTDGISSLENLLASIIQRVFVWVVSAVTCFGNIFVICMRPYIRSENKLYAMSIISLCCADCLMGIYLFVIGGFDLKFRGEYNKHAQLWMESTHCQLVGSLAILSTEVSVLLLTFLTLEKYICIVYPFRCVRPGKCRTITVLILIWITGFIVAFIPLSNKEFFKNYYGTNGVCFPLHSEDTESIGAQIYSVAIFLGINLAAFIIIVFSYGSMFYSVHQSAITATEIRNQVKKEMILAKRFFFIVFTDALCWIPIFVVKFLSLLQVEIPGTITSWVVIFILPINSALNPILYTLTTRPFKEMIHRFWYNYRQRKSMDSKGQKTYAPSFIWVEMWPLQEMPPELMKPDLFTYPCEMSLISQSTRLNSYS
Experiment: RXFP1 Hu cAMP (Test A)
Format: cell-based
Parameters: expressed in transfected cells; host or cells: Jump-In T-REx CHO-K1 cells (ThermoFisher), induced with 10 ng/ml doxycycline for 24 h
Summary of the method: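 Read-out is HTRF signal, inversely proportional to cAMP, converted to cAMP amount by standard curve. Stimulation occurred in inducible CHO-K1 cells expressing the human receptor with phosphodiesterases blocked by 0.5 mM IBMX.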

[1] = RXFP1 Hu cAMP, read-out: Test A EC50

| Compound | Test A Sinf (RXFP1 Hu cAMP) [%] | EC50 [1] [nM] | EC50 (Test A EC50, RXFP1 Hu cAMP) [nM] |
| --- | --- | --- | --- |
| COc1cc(F)c(O[C@H]2CC[C@@](C)(C(=O)O)CC2)cc1C(=O)N[C@@H]1[C@@H](OC)CC[C@@H]1C(=O)Nc1cccc(S(=O)(=O)C(F)(F)F)c1 (racemic) [Example 359] | 91 | 170 |  |
| COc1ccc(Oc2cccc(C(=O)O)c2)cc1C(=O)N[C@H]1[C@@H](C(=O)Nc2cccc(S(=O)(=O)C(F)(F)F)c2)[C@@H]2C=C[C@H]1C2 (racemic) [Example 428] | 80 | 5100 |  |
| COc1cc(C#N)c(O[C@H]2CC[C@@](C)(C(=O)O)CC2)cc1C(=O)N[C@@H]1[C@H]2CC[C@H](C2)[C@@H]1C(=O)NCCC(C)(C)C [Example 130] | 95 | 78 |  |
| COc1cc(F)c(-c2ccc(C(=O)O)cc2)cc1C(=O)N[C@H]1[C@@H](C(=O)Nc2cc(F)cc(C#N)c2)[C@@H]2C=C[C@H]1C2 (racemic) [Example 310] |  | > 40000 |  |
| (1R,4s)-4-(2-Fluoro-4-methoxy-5-(((3S*,4R*)-4-(((1-methylcyclobutyl)methyl)carbamoyl)tetrahydrofuran-3-yl)carbamoyl)phenoxy)-1-(hydroxymethyl)cyclohexane-1-carboxylic acid [Example 581] | 94 |  |  |
| (1R,4s)-4-(2-Fluoro-4-methoxy-5-(((1R*,2S*,3R*,4S*)-3-(((1-methylcyclobutyl)methyl)carbamoyl)bicyclo[2.2.2]oct-5-en-2-yl)carbamoyl)phenoxy)-1-methylcyclohexane-1-carboxylic acid [Example 545] | 91 |  |  |
| CCC(C)(C)NC(=O)[C@H]1[C@@H]2CC[C@@H](C2)[C@H]1NC(=O)c1cc(O[C@H]2CC[C@@](C)(C(=O)O)CC2)c(C#N)cc1OC [Example 126] | 98 | 47 |  |
| COc1cc(F)c(-c2ccc(C(=O)O)cc2)cc1C(=O)N[C@H]1[C@@H](C(=O)Nc2ccc(F)c(C#N)c2)[C@@H]2C=C[C@H]1C2 (racemic) [Example 309] | 80 | 4000 |  |
| COc1cc(C(F)(F)F)c(O[C@H]2CC[C@@](C)(C(=O)O)CC2)cc1C(=O)N[C@@H]1[C@H]2CC[C@H](C2)[C@@H]1C(=O)NCC1(C)CCC1 [Example 372] | 96 |  | 21 |
| COc1cc(C#N)c(O[C@H]2CC[C@@](C)(C(=O)O)CC2)cc1C(=O)Nc1cc(Cl)ccc1C(=O)NCC(C)(C)F [Example 164] | 142 | 130 |  |
| COc1cc(F)c(O[C@H]2CC[C@@](C)(C(=O)O)CC2)cc1C(=O)N[C@@H]1COC[C@@H]1C(=O)NCC(C)(C)C (racemic) [Example 345] |  | > 40000 |  |
| COc1cc(C#N)c(OCCCC(C)(C)C(=O)O)cc1C(=O)N[C@@H]1[C@H]2CC[C@H](C2)[C@@H]1C(=O)NCC1(C)CCC1 [Example 431] | 115 | 130 |  |
| COc1cc(F)c(-c2ccc([C@@H](C(=O)O)N(C)C)cc2)cc1C(=O)N[C@@H]1[C@H]2CC[C@H](C2)[C@@H]1C(=O)Nc1cccc(S(=O)(=O)C(F)(F)F)c1 (racemic) [Example 295] | 100 | 500 |  |
| COc1cc(C#N)c(O[C@H]2CC[C@@](C)(C(=O)O)CC2)cc1C(=O)Nc1cc(C)ccc1C(=O)NCC1(F)CCC1 [Example 172] | 125 | 980 |  |
| COc1cc(F)c(O[C@H]2CC[C@@](C)(C(=O)O)CC2)cc1C(=O)N[C@@H]1CCCO[C@@H]1C(=O)Nc1cccc(S(=O)(=O)C(F)(F)F)c1 [Example 357] | 101 | 5400 |  |
| COc1cc(F)c(O[C@H]2CC[C@@](C)(C(=O)O)CC2)cc1C(=O)N[C@@H]1[C@@H]2CC[C@@H](C2)[C@@H]1C(=O)NCC(C)(C)C [Example 370] | 102 |  | 24 |

More lines, main results first:

| Test A Sinf (RXFP1 Hu cAMP) [%] | EC50 [1] [nM] | Compound | EC50 (Test A EC50, RXFP1 Hu cAMP) [nM] |
| --- | --- | --- | --- |
| 108 | 400 | COc1cc(F)c(O[C@H]2CC[C@@](C)(C(=O)O)CC2)cc1C(=O)N[C@@H]1[C@H]2CC[C@H](C2)[C@@H]1C(=O)NCC1(F)CCC1 [Example 609] |  |
| 106 | 400 | COc1cc(F)c(O[C@H]2CC[C@@](C)(C(=O)O)CC2)cc1C(=O)N[C@@H]1[C@H]2CC[C@H](C2)[C@@H]1C(=O)N[C@H](C)C(F)(F)F [Example 597] |  |
|  | > 40000 | COc1cc(F)c(O[C@H]2CC[C@@](C)(C(=O)O)CC2)cc1C(=O)NC1C(OC)CCC1C(=O)Nc1cccc(S(=O)(=O)C(F)(F)F)c1 (single isomer, unassigned) [Example 526, (1R,4s)-4-(2-Fluoro-4-methoxy-5-(((1S*,2S*,5S*)-2-methoxy-5-((3-((trifluoromethyl)sulfonyl)phenyl)carbamoyl)cyclopentyl)carbamoyl)phenoxy)-1-methylcyclohexane-1-carboxylic acid] |  |
|  | > 40000 | COc1cc(F)c(O[C@H]2CC[C@@](C)(C(=O)O)CC2)cc1C(=O)NC1COCCC1C(=O)Nc1ccc(F)c(S(F)(F)(F)(F)F)c1 (single isomer, unassigned) [Example 574, (1R,4s)-4-(2-Fluoro-5-(((3S*,4S*)-4-((4-fluoro-3-(pentafluoro-λ6-sulfaneyl)phenyl)carbamoyl)tetrahydro-2H-pyran-3-yl)carbamoyl)-4-methoxyphenoxy)-1-methylcyclohexane-1-carboxylic acid] |  |
| 102 | 17 | COc1cc(F)c(O[C@H]2CC[C@@](C)(C(=O)O)CC2)cc1C(=O)N[C@H]1[C@H]2CC[C@H](CC2)[C@H]1C(=O)NCC1(C)CCC1 (racemic) [Example 470, (1R,4s)-4-(2-Fluoro-4-methoxy-5-(((2SR,3RS)-3-(((1-methylcyclobutyl)methyl)carbamoyl)bicyclo[2.2.2]octan-2-yl)carbamoyl)phenoxy)-1-methylcyclohexane-1-carboxylic acid] |  |
| 98 | 120 | COc1cc(F)c(O[C@H]2CC[C@@H](C(=O)O)CC2)cc1C(=O)N[C@H]1[C@@H](C(=O)Nc2cccc(S(=O)(=O)C(F)(F)F)c2)[C@@H]2C=C[C@H]1C2 (racemic) [Example 495] |  |
| 98 | 900 | COc1cc(F)c(OC2CCCC(C(=O)O)C2)cc1C(=O)N[C@@H]1[C@H]2CC[C@H](C2)[C@@H]1C(=O)Nc1cccc(S(=O)(=O)C(F)(F)F)c1 (single isomer, unassigned) [Example 446] |  |
| 116 | 570 | COc1cc(F)c(O[C@H]2CC[C@@](C)(C(=O)O)CC2)cc1C(=O)N[C@@H]1[C@H]2CC[C@H](C2)[C@@H]1C(=O)NCC1(C#N)CCC1 [Example 595] |  |
|  | > 40000 | COc1cc(F)c(O[C@H]2CC[C@@](C)(C(=O)O)CC2)cc1C(=O)NC1C(C(=O)Nc2cccc(S(=O)(=O)C(F)(F)F)c2)CC(O)C1O (single isomer, unassigned) [Example 562, (1R,4s)-4-(5-(((1S*,2R*,3S*,5S*)-2,3-Dihydroxy-5-((3-((trifluoromethyl)sulfonyl)phenyl)carbamoyl)cyclopentyl)carbamoyl)-2-fluoro-4-methoxyphenoxy)-1-methylcyclohexane-1-carboxylic acid] |  |
| 103 | 390 | COc1cc(F)c(O[C@H]2CC[C@@](C)(C(=O)O)CC2)cc1C(=O)N[C@@H]1[C@H]2CC[C@H](C2)[C@@H]1C(=O)NC1CC(F)(F)C1 [Example 619] |  |
| 104 | 140 | COc1cc(F)c(O[C@H]2CC[C@@](CO)(C(=O)O)CC2)cc1C(=O)NC1C2CCC(O2)C1C(=O)NCC1(C)CCC1 (single isomer, unassigned) [Example 532, (1R,4s)-4-(2-Fluoro-4-methoxy-5-(((1S*,2S*,3R*,4R*)-3-(((1-methylcyclobutyl)methyl)carbamoyl)-7-oxabicyclo[2.2.1]heptan-2-yl)carbamoyl)phenoxy)-1-(hydroxymethyl)cyclohexane-1-carboxylic acid] |  |
| 104 | 8 | COc1cc(F)c(O[C@H]2CC[C@@](C)(C(=O)O)CC2)cc1C(=O)NC1CCCCCC1C(=O)Nc1cccc(S(=O)(=O)C(F)(F)F)c1 (single isomer, unassigned) [Example 516, (1R,4s)-4-(2-Fluoro-4-methoxy-5-(((1S*,2R*)-2-((3-((trifluoromethyl)sulfonyl)phenyl)carbamoyl)cycloheptyl)carbamoyl)phenoxy)-1-methylcyclohexane-1-carboxylic acid] |  |
| 129 |  | COc1cc(F)c(OCCCC(=O)O)cc1C(=O)N[C@H]1[C@@H](C(=O)Nc2cccc(S(=O)(=O)C(F)(F)F)c2)[C@@H]2C=C[C@H]1C2 (racemic) [Example 456] |  |
| 90 | 420 | COc1cc(F)c(O[C@H]2CC[C@@](C)(C(=O)O)CC2)cc1C(=O)N[C@@H]1[C@H]2CC[C@H](C2)[C@@H]1C(=O)N[C@H]1CCN(S(=O)(=O)C(F)(F)F)C1 [Example 606] |  |
